Test results: paper PMC6399351, “Cationic Intrinsically Disordered Antimicrobial Peptides (CIDAMPs) Represent a New Paradigm of Innate Defense with a Potential for Novel Anti-Infectives” (Scientific Reports, 2019)
Values after ≈ are worked out from the molar mass of the structure shown. Like-named read-outs stand apart in the source and are kept apart here. Peptide text beside a SMILES is read from it. * marks the point of attachment. Palmitoyl = CCCCCCCCCCCCCCCC(=O)*

Tests used:
[1] = test system: S. aureus ATCC 6538; conditions: CFU assay, 10 mM NaP
[2] = test system: P. aeruginosa ATCC 10145; conditions: CFU assay, 10 mM NaP, pH 7.3, 1% TSB
[3] = test system: Clostridium perfringens ATCC 13124; conditions: CFU assay, 10 mM NaP, pH 7.3, 0.25% glucose
[4] = test system: Streptococcus pneumoniae ATCC 33400; assay: CFU assay of antimicrobial activity; format: cell-based; conditions: 10 mM NaP, pH 7.3, 0.25% glucose
Procedure: (§1) All purified peptides and recombinant proteins were applied using a colony forming unit (CFU) assay in different media. Bacteria were grown to early log-phase in BHI, washed either with 10 mM Na-P, pH 7.4/1% TSB or pH 5.5/1% TSB, or pH 5.5 without TSB or BHI, and adjusted to a concentration of 10^4–10^5 colony forming units (CFU)/ml. For cell number control, 100 µl aliquots were diluted 1:10, 1:100 and 1:1000 and plated in duplicates on BHI agar plates. To 100 µl aliquots of the bacteria, suspended in the respective medium (10 mM Na-P buffer pH 7,0–7,4/ 1% (w/v) TSB; […]; 10 mM Na-P buffer pH 7,0–7,4/ 1% (w/v) TSB pH 7,0–7,4/ 0,25% (w/v) glucose; 10 mM Na-P buffer pH 5,5/ 0,25% (w/v) glucose, respectively), 10 µl of a solution of the peptide or protein (two-fold dilutions, from 300 µg/ml or 150 µg/ml down to 19 ng/ml), dissolved in 0.01% (v/v) acetic acid, were added.
(§2) Then bacteria were incubated for 2 h at ambient temperature, if not otherwise stated. 10 µl of 0.01% (v/v) acetic acid, added to 100 µl aliquots of the bacteria in the respective medium, served as negative control. From each test, 1:10 and 1:100 dilutions were generated and plated as duplicates of 100 µl aliquots on BHI agar plates. After 16 h incubation at 37 °C, CFU were counted using a colony counter (Bio Kobe, Japan) and expressed as mean of the duplicate estimation to achieve a complete dose-response curve. All experiments were performed at serial dilutions in a concentration range of 100 µg/mL −25 ng/mL for recombinant HRNR fragments and 300 or 150 µg/mL–19 ng/mL for synthetic peptides.

[5] = test system: Streptococcus pyogenes ATCC 12344; assay: CFU assay of antimicrobial activity; format: cell-based; conditions: 10 mM NaP, pH 7.3, 0.25% glucose
Procedure: as §1, §2

[6] = test system: Klebsiella pneumonia ATCC 700603; conditions: MDR strain; CLSI, Mueller–Hinton broth, 5 × 10^5 CFU/mL, 18 h 37 °C, by CO-ADD
[7] = test system: Prevotella oralis ATCC 33321; assay: CFU assay of antimicrobial activity; format: cell-based; conditions: 10 mM NaP, pH 7.3, 1% TSB
Procedure: All purified peptides and recombinant proteins were applied using a colony forming unit (CFU) assay in different media. Bacteria were grown to early log-phase in BHI, washed either with 10 mM Na-P, pH 7.4/1% TSB or pH 5.5/1% TSB, or pH 5.5 without TSB or BHI, and adjusted to a concentration of 10^4–10^5 colony forming units (CFU)/ml. For cell number control, 100 µl aliquots were diluted 1:10, 1:100 and 1:1000 and plated in duplicates on BHI agar plates. To 100 µl aliquots of the bacteria, suspended in the respective medium (10 mM Na-P buffer pH 7,0–7,4/ 1% (w/v) TSB; 10 mM Na-P buffer pH 5,5/ 1% (w/v) TSB; 10 mM Na-P buffer pH 7,0–7,4/ 1% (w/v) TSB pH 7,0–7,4/ 0,25% (w/v) glucose; […], respectively), 10 µl of a solution of the peptide or protein (two-fold dilutions, from 300 µg/ml or 150 µg/ml down to 19 ng/ml), dissolved in 0.01% (v/v) acetic acid, were added.
as §2

[8] = test system: Staphylococcus aureus ATCC 43300; conditions: MRSA; CLSI, Mueller–Hinton broth, 5 × 10^5 CFU/mL, 18 h 37 °C, by CO-ADD
[9] = test system: Cryptococcus neoformans ATCC 208821; assay: CO-ADD MIC, antifungal assay (CLSI); format: cell-based; conditions: Yeast Nitrogen Base broth, 24 h 35 °C, by CO-ADD
Procedure: (§3) Fungi strains were cultured for 3 days on Yeast Extract-Peptone Dextrose (YPD) agar at 30 °C. A yeast suspension of 1 × 10^6 to 5 × 10^6 cells/mL (as determined by OD530) was prepared from five colonies. These stock suspensions were diluted with Yeast Nitrogen Base (YNB) broth to a final concentration of 2.5 × 10^3 CFU/mL. […] Plates were covered and incubated at 35 °C for 24 h without shaking.

[10] = test system: Candida albicans ATCC 90028; assay: CO-ADD MIC, antifungal assay (CLSI); format: cell-based; conditions: Yeast Nitrogen Base broth, 24 h 35 °C, by CO-ADD
Procedure: as §3

[11] = test system: Propionibacterium acnes ATCC 6919; assay: CFU assay of antimicrobial activity; format: cell-based; conditions: 10 mM NaP, pH 7.3, 1% TSB
Procedure: All purified peptides and recombinant proteins were applied using a colony forming unit (CFU) assay in different media. Bacteria were grown to early log-phase in BHI, washed either with 10 mM Na-P, pH 7.4/1% TSB or pH 5.5/1% TSB, or pH 5.5 without TSB or BHI, and adjusted to a concentration of 10^4–10^5 colony forming units (CFU)/ml. For cell number control, 100 µl aliquots were diluted 1:10, 1:100 and 1:1000 and plated in duplicates on BHI agar plates. To 100 µl aliquots of the bacteria, suspended in the respective medium (10 mM Na-P buffer pH 7,0–7,4/ 1% (w/v) TSB; 10 mM Na-P buffer pH 5,5/ 1% (w/v) TSB; 10 mM Na-P buffer pH 7,0–7,4/ 1% (w/v) TSB pH 7,0–7,4/ 0,25% (w/v) glucose; 10 mM Na-P buffer pH 5,5/ 0,25% (w/v) glucose, respectively), 10 µl of a solution of the peptide or protein (two-fold dilutions, from 300 µg/ml or 150 µg/ml down to 19 ng/ml), dissolved in 0.01% (v/v) acetic acid, were added.
as §2

[12] = test system: Pseudomonas aeruginosa ATCC 27853; assay: CO-ADD MIC, broth microdilution (CLSI); format: cell-based; conditions: Mueller–Hinton broth, 5 × 10^5 CFU/mL, 18 h 37 °C, by CO-ADD
Description: (§4) They were defined as the lowest peptide
(§5) Further details of the screening

[13] = test system: Acinetobacter baumannii ATCC 19606; assay: CO-ADD MIC, broth microdilution (CLSI); format: cell-based; conditions: Mueller–Hinton broth, 5 × 10^5 CFU/mL, 18 h 37 °C, by CO-ADD
Description: as §4, §5

[14] = test system: Burkholderia cepacia ATCC 25416; conditions: CFU assay, 10 mM NaP
[15] = test system: E. coli ATCC 25922; assay: CO-ADD MIC, broth microdilution (CLSI); format: cell-based, Escherichia coli; conditions: Mueller–Hinton broth, 5 × 10^5 CFU/mL, 18 h 37 °C, by CO-ADD
Description: as §4, §5

SMILES: CCCCCCCCCCCCCCCC(=O)NCC(=O)N[C@@H](CCCNC(=N)N)C(=O)N[C@@H](CCCNC(=N)N)C(=O)NCC(=O)N[C@@H](CO)C(=O)NCC(=O)N[C@@H](CC(C)C)C(=O)NCC(=O)N[C@@H](CCCNC(=N)N)C(=O)N[C@@H](CO)C(=O)N[C@@H](CO)C(=O)N[C@@H](CO)C(=O)N[C@@H](CCCNC(=N)N)C(=O)NCC(=O)N[C@@H](CCC(N)=O)C(=O)N[C@@H](CCCNC(=N)N)C(=O)NCC(=O)N[C@@H](CO)C(=O)NCC(=O)N[C@@H](CO)C(=O)NCC(=O)N[C@@H](CCCNC(=N)N)C(=O)O [Pal-HR 1-18-HR] (Palmitoyl-GRRGSGLGRSSSRGQRGSGSGR-OH)
- LD90 ([1]; pH 5.5, 0.25% glucose): 0.3 µg/mL
- LD90 ([1]; pH 7.3, 1% TSB): 1.18 µg/mL
- LD90 [2]: 1.18 µg/mL
- LD90 [3]: 4.7 µg/mL
- LD90 [4]: 9.38 µg/mL
- LD90 [5]: 0.15 µg/mL
- Minimal inhibitory concentration (MIC) [6]: >32 µg/mL
- LD90 [7]: 37.5 µg/mL
- Minimal inhibitory concentration (MIC) [8]: 8 µg/mL (≈ 3.31 µM)
- Minimal inhibitory concentration (MIC) [9]: 1 µg/mL (≈ 0.414 µM)
- Minimal inhibitory concentration (MIC) [10]: >32 µg/mL
- LD90 [11]: 1.18 µg/mL
- Minimal inhibitory concentration (MIC) [12]: 16 µg/mL (≈ 6.63 µM)
- Minimal inhibitory concentration (MIC) [13]: 1 µg/mL (≈ 0.414 µM)
- LD90 ([14]; pH 7.3, 0.25% glucose): 75 µg/mL
- LD90 ([14]; pH 7.3, 1% TSB): 75 µg/mL
- Minimal inhibitory concentration (MIC) [15]: 4 µg/mL (≈ 1.66 µM)
